Measured values reported in BigSolDB 2.1.

Cc1cnc(NC(=O)C2=C(O)c3ccccc3S(=O)(=O)N2C)s1
solubility (mole fraction)
Conditions | 293.15 K | 298.15 K | 303.15 K | 308.15 K | 313.15 K
in transcutol | 0.0012 | 0.0013 | 0.0014 | 0.00151 | 0.00165
in water | 1.09e-06 | 1.14e-06 | 1.19e-06 | 1.26e-06 | 1.33e-06
